This is an account of results in publication PMC12541891 (MicrobiologyOpen, 2025).

The subject of one data set is C. krusei biofilm. As to the kind of experiment: Biofilm metabolic activity by XTT-reduction assay. The data set is classed as cell-based, Candida krusei. The method, then:
For all bacterial strains considered in the study, biofilm was performed on a 96‐well plate inoculated with 200 µL of a bacterial suspension 1 × 10^6 CFU/mL and incubated 24 h at 37°C. After incubation for 4 h at 37°C, the medium was aspirated, non‐adherent cells were removed, washed with PBS and added with 200 µL of fresh medium. […] Similarly, to perform fungal biofilm, the different Candida species were grown for 24 h at 28°C on a multi‐wells plate, washed twice with sterile PBS, and then resuspended at 37°C in RPMI 1640 plus 10% FBS at 2.5 × 10^7 cells. After incubation for 3 h at 37°C in six‐well polystyrene plates, the medium was aspirated, non‐adherent cells were removed and washed with PBS.
The biofilm metabolic activity was evaluated by XTT assay, that highpoints the activity through the reduction of the tetrazolium salt to formazan. After the removal of supernatant and washing with PBS, a solution of XTT‐menadione solution were added to wells. The XTT‐menadione was prepared dissolving XTT powder in prewarmed PBS (37°C) at 0.5 g/L. The solution was sterilized through a 0.22 μm pore size filter. Before each assay, the XTT solution was thawed and supplemented with menadione, a 10 mM stock dissolved in acetone to a final concentration 1 μM. Plates were incubated for 3 h at 37°C in the dark and then the absorbance was measured at 492 nm using the microplate reader, Tecan Sunrise.
For orientation: Formazan colour is commonly taken as a measure of viable cells.

A further data set concerns Caco-2 cell line. As to the kind of experiment: MTT cytotoxicity assay. The note with it: Caco-2, 24 h contact, 15-125 µg/mL tested. The method, then: (§1) These cell lines were purchased from the American Type Culture Collection (ATCC HTB‐37, Rockville, USA) and stored in liquid nitrogen. T24 cells were cultured in RPMI, supplemented with 10% FBS, 2 mM glutamine, 100 U/mL penicillin, and 100 µg/mL streptomycin. A549 and Caco‐2 cells were cultured in DMEM, supplemented with 10% FBS, 100 U/mL penicillin and 100 μg/mL streptomycin. Cultures were incubated at 37°C in a humidified 5% CO2 atmosphere.
(§2) In a 96‐well plate, 200 μL of cell suspension (10^4 cells/well) were added to each well and plates were incubated at 37°C, 5% CO2. […] Untreated cells were taken as control. After 24 h of treatment, culture medium was replaced with 200 μL of fresh medium added with MTT (5 mg/mL), then plates were incubated for 4 h at 37°C, 5% CO2 atmosphere. Afterward, culture medium with MTT was removed and 200 μl of DMSO were added to each well to dissolve the formazan crystals formed in living cells. After 15 min of incubation, the absorbance was measured at 570 nm, with the reference set at 620 nm, using the automatic microplate reader, Tecan Sunrise (Kumar et al. [2018]). Controls in all the experiments were: (i) wells without the substances assayed, as positive cells growth control; (ii) wells added with ethanol or DMSO in the same amounts in which the substances were suspended, as cells growth control in presence of the substances' solvents.

The subject of a further data set is A549 cell line. In words: MTT cytotoxicity assay. The note with it: A549, 24 h contact, 15-125 µg/mL tested. The protocol:
as §1, §2

Turning to `Cc1ccc(C(C)C)cc1O` [Carvacrol, 2‐methyl‐5‐isopropyl phenol], the “Percentage of metabolic activity reduction” value with C. krusei biofilm (biofilm in formation (3 h), substance alone at MIC) was determined as 89.4%; with C. krusei biofilm (biofilm in formation, sub-MIC concentrations alone or in combination (Table 5), listed as C), 30%; with C. krusei biofilm (preformed biofilm (24 h), substance alone at MIC), 89.4%; with C. krusei biofilm (preformed biofilm, sub-MIC concentrations alone or in combination (Table 5), listed as C), 25%. Besides, the concentrations significantly cytotoxic in the data set with Caco-2 cell line and in the data set on A549 cell line was over 31000 ng/mL each time.
